The results in this text go back to US10227323B2, “Glucosylceramide synthase inhibitors for the treatment of diseases” (BIOMARIN PHARMACEUTICAL INC., priority 2013, dated 2019).

A word on the IC50: it is the concentration needed to halve the response being measured.

Each structure is given as a SMILES string.

The first experiment concerns the target T1, GCS (Canis lupus familiaris, UniProt A0A8I3MXG6).
T1 sequence (A0A8I3MXG6 1-394): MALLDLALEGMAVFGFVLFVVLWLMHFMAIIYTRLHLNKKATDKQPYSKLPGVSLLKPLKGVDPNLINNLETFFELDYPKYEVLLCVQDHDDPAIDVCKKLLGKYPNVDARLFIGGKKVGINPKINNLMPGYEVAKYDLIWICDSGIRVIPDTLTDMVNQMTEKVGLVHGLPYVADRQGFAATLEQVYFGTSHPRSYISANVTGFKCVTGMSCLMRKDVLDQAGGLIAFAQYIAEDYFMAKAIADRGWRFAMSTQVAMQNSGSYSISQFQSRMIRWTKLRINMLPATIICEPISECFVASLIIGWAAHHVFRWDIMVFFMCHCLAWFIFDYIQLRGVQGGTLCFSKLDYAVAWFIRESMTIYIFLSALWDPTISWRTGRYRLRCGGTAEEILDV
Description: Assay 1: GCS Enzymatic Assay (MDCK cell lysate, C6-NBD-Ceramide, LC/MS). The experiment is classed as biochemical, canine. Particulars: Table 2; data marked by *. Put shortly:
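LC/MS/MS measurement of glucosylceramide and NBD-ceramide after a 1 h, 37 °C reaction with 100 μM UDP-glucose and 10 μM C6-NBD-ceramide gave IC50s or percent inhibition.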
Regarding `O=C(N[C@H](CN1CCC1)[C@H](O)c1cc(F)c2c(c1)OCCO2)C(=O)c1ccc2cc(Cl)ccc2c1` [Compound 188, N-((1R,2R)-3-(azetidin-1-yl)-1-(8-fluoro-2,3-dihydrobenzo[b][1,4]dioxin-6-yl)-1-hydroxypropan-2-yl)-2-(6-chloronaphthalen-2-yl)-2-oxoacetamide], the “% inhibition generated from Assay 1” value is given as “A* (the compound had a % inhibition of a percent inhibition of greater than or equal to about 50%)”.

Consider `O=C(N[C@H](CN1CCCC1)[C@H](O)c1ccc2c(c1)OCCO2)C(=O)c1ccc(-c2ccc(F)cn2)cc1` [Compound 189, N-((1R,2R)-1-(2,3-dihydrobenzo[b][1,4]dioxin-6-yl)-1-hydroxy-3-(pyrrolidin-1-yl)propan-2-yl)-2-(4-(5-fluoropyridin-2-yl)phenyl)-2-oxoacetamide], for which the “% inhibition generated from Assay 1” value was “A* (the compound had a % inhibition of a percent inhibition of greater than or equal to about 50%)”. Same read-out and setting: the result for `O=C(N[C@H](CN1CCCC1)[C@H](O)c1ccc2c(c1)OCCO2)/C(=N/O)c1ccc(-c2ccc(F)cn2)cc1` [Compound 190, (E)-N-((1R,2R)-1-(2,3-dihydrobenzo[b][1,4]dioxin-6-yl)-1-hydroxy-3-(pyrrolidin-1-yl)propan-2-yl)-2-(4-(5-fluoropyridin-2-yl)phenyl)-2-(hydroxyimino)acetamide] reads “A* (the compound had a % inhibition of a percent inhibition of greater than or equal to about 50%)”; that for `CC(C)(O)COc1ccc([C@@H](O)[C@@H](CN2CCCC2)NC(=O)C(F)(F)C2Cc3ccc(Cl)cc3C2)cc1Cl` (stereo partly drawn) [Compound 192, 2-(5-chloro-2,3-dihydro-1H-inden-2-yl)-N-((1R,2R)-1-(3-chloro-4-(2-hydroxy-2-methylpropoxy)phenyl)-1-hydroxy-3-(pyrrolidin-1-yl)propan-2-yl)-2,2-difluoroacetamide], “A* (the compound had a % inhibition of a percent inhibition of greater than or equal to about 50%)”; that for `O=C(N[C@H](CN1CCCC1)[C@H](O)c1ccc2c(c1)OCCO2)C(=O)c1ccc(-c2ccccn2)cc1` [Compound 195, N-((1R,2R)-1-(2,3-dihydrobenzo[b][1,4]dioxin-6-yl)-1-hydroxy-3-(pyrrolidin-1-yl)propan-2-yl)-2-oxo-2-(4-(pyridin-2-yl)phenyl)acetamide], “A* (the compound had a % inhibition of a percent inhibition of greater than or equal to about 50%)”. For the compound `O=C(N[C@H](CN1CCCC1)[C@H](O)c1cc(F)c2c(c1)OCCO2)C(F)(F)c1cn2ccccc2n1` [Compound 196, 2,2-difluoro-N-((1R,2R)-1-(8-fluoro-2,3-dihydrobenzo[b][1,4]dioxin-6-yl)-1-hydroxy-3-(pyrrolidin-1-yl)propan-2-yl)-2-(imidazo[1,2-a]pyridin-2-yl)acetamide], the “% inhibition generated from Assay 1” value is given as “B* (the compound had a % inhibition of greater than or equal to about 3% but less than about 50%)”.

Regarding `CN1CCCc2cc(CCC(F)(F)C(=O)N[C@H](CN3CCCC3)[C@H](O)c3ccc4c(c3)OCCO4)ccc21` [Compound 198, N-((1R,2R)-1-(2,3-dihydrobenzo[b][1,4]dioxin-6-yl)-1-hydroxy-3-(pyrrolidin-1-yl)propan-2-yl)-2,2-difluoro-4-(1-methyl-1,2,3,4-tetrahydroquinolin-6-yl)butanamide], the “% inhibition generated from Assay 1” value is reported as “A* (the compound had a % inhibition of a percent inhibition of greater than or equal to about 50%)”. Same read-out and setting: the same measure for `O=C(N[C@H](CN1CCCC1)[C@H](O)c1ccc(OC2CC2)c(Cl)c1)C(F)(F)c1cn2ccccc2n1` [Compound 199, N-((1R,2R)-1-(3-chloro-4-cyclopropoxyphenyl)-1-hydroxy-3-(pyrrolidin-1-yl)propan-2-yl)-2,2-difluoro-2-(imidazo[1,2-a]pyridin-2-yl)acetamide]: “B* (the compound had a % inhibition of greater than or equal to about 3% but less than about 50%)”; for `O=C(N[C@H](CN1CCCC1)[C@H](O)c1ccc2c(c1)OCCO2)C(F)(F)c1cccc(Oc2ccc(F)cc2)c1` [Compound 201, N-((1R,2R)-1-(2,3-dihydrobenzo[b][1,4]dioxin-6-yl)-1-hydroxy-3-(pyrrolidin-1-yl)propan-2-yl)-2,2-difluoro-2-(3-(4-fluorophenoxy)phenyl)acetamide]: “A* (the compound had a % inhibition of a percent inhibition of greater than or equal to about 50%)”.

Staying with this experiment, now noted: Table 2; data without asterisk; read-out: IC50 (nM) generated from Assay 1.
As to `O=C(N[C@H](CN1CCCC1)[C@H](O)c1cc(F)c2c(c1)OCCO2)C(F)(F)c1ccc(-c2ccccn2)cc1` [Compound 187, 2,2-difluoro-N-((1R,2R)-1-(8-fluoro-2,3-dihydrobenzo[b][1,4]dioxin-6-yl)-1-hydroxy-3-(pyrrolidin-1-yl)propan-2-yl)-2-(4-(pyridin-2-yl)phenyl)acetamide], the IC50 is below 50 nM.

Take `O=C(N[C@H](CN1CCC1)[C@H](O)c1cc(F)c2c(c1)OCCO2)/C(=N/O)c1ccc2cc(Cl)ccc2c1` [Compound 191, (E)-N-((1R,2R)-3-(azetidin-1-yl)-1-(8-fluoro-2,3-dihydrobenzo[b][1,4]dioxin-6-yl)-1-hydroxypropan-2-yl)-2-(6-chloronaphthalen-2-yl)-2-(hydroxyimino)acetamide]: the IC50 is below 50 nM. For `CC(C)(O)COc1ccc([C@@H](O)[C@@H](CN2CCCC2)NC(=O)C(=O)c2ccc(-c3ccc(F)cc3)cc2)cc1Cl` [Compound 194, N-((1R,2R)-1-(3-chloro-4-(2-hydroxy-2-methylpropoxy)phenyl)-1-hydroxy-3-(pyrrolidin-1-yl)propan-2-yl)-2-(4′-fluoro-[1,1′-biphenyl]-4-yl)-2-oxoacetamide], the IC50 was below 50 nM. Same read-out and setting: the result for `O=C(N[C@H](CN1CCCC1)[C@H](O)c1ccc2c(c1)OCCO2)C(=O)c1cccc(Oc2ccc(F)cc2)c1` [Compound 197, N-((1R,2R)-1-(2,3-dihydrobenzo[b][1,4]dioxin-6-yl)-1-hydroxy-3-(pyrrolidin-1-yl)propan-2-yl)-2-(3-(4-fluorophenoxy)phenyl)-2-oxoacetamide] reads below 50 nM; that for `O=C(N[C@H](CN1CCCC1)[C@H](O)c1cc(F)c2c(c1)OCCO2)C(=O)c1ccc(N2CCCCC2)cc1` [Compound 200, N-((2R)-1-(8-fluoro-2,3-dihydrobenzo[b][1,4]dioxin-6-yl)-1-hydroxy-3-(pyrrolidin-1-yl)propan-2-yl)-2-oxo-2-(4-(piperidin-1-yl)phenyl)acetamide], below 50 nM. For the compound `Cn1ncc2cc(-c3ccc(C(F)(F)C(=O)N[C@H](CN4CCCC4)[C@H](O)c4ccc(OC5CC5)c(Cl)c4)cc3)ccc21` [Compound 202, N-((1R,2R)-1-(3-chloro-4-cyclopropoxyphenyl)-1-hydroxy-3-(pyrrolidin-1-yl)propan-2-yl)-2,2-difluoro-2-(4-(1-methyl-1H-indazol-5-yl)phenyl)acetamide], the IC50 is below 50 nM. In the case of `O=C(N[C@H](CN1CCCC1)[C@H](O)c1cc(F)c2c(c1)OCCO2)C(=O)c1cccc(Oc2ccc(F)cc2)c1` [Compound 203, N-((1R,2R)-1-(8-fluoro-2,3-dihydrobenzo[b][1,4]dioxin-6-yl)-1-hydroxy-3-(pyrrolidin-1-yl)propan-2-yl)-2-(3-(4-fluorophenoxy)phenyl)-2-oxoacetamide], the IC50 is below 50 nM.
